Experimental data published in patent US10138230B2, “Autotaxin inhibitors” (CANCER RESEARCH TECHNOLOGY LIMITED, priority 2015, dated 2018).
Counter-ions that a name gives are not always drawn.

These molecules were tested against human recombinant ATX (Homo sapiens (Human), UniProt Q13822) (assay: Autotaxin (ATX) activity Quanta Red assay). Conditions: 15 μM Rac-1-Palmitoyl-glycero-3-phosphocholine, 2 hours room temperature, determined in duplicate.
Type: biochemical
Experimental: The ATX enzyme assay (Quanta Red assay) described in accompanying Example section may be used to measure the pharmacological effects of the compounds of the present invention.
Autotaxin (ATX) Activity Quanta Red Assay
Measuring ATX activity using an enzyme coupled Quanta Red assay (Thermo Scientific—Pierce Protein Research Products, Product #15159) was determined as follows. 8 μL human recombinant ATX (final concentration 0.8 μg/mL) in 1× Assay buffer containing 50 mM Tris-HCl (pH 8.0), 5 mM CaCl2 was added to an opaque black flat-bottom 384-well plate (Corning, #3575) containing 2 μL test compound in 40% DMSO (4% final DMSO concentration). 10 μL of Quanta Red, Horseradish peroxidase (HRP), Choline Oxidase (CO), Rac-1-Palmitoyl-glycero-3-phosphocholine solution (final concentration 1:250 for Quanta Red, 0.5units/ml HRP, 0.5units/ml CO, 15 μM Rac-1-Palmitoyl-glycero-3-phosphocholine) in 1× assay buffer (as described previously) was added to each well to start the reaction and the plate was incubated at room temperature for 2 hours. The reaction was stopped after 2 hours with a 20 μL addition of Quanta Red Stop solution (1:20 dilution in distilled water). The above-described mixture with DMSO alone was used as a positive control whereas that with DMSO alone without ATX was taken as a negative control.
For each test compound, ten concentrations were measured covering a range of 6.1 nM to 120 μM to determine IC50 values. The top concentration was decreased to 1.2 μM when a test compound's IC50 value was evaluated in low nanomolar range. Fluorescence was determined in a BMG Labtech Pherastar plus plate reader ([…]). Data were analysed using Excel fit software. IC50 values were determined in duplicate.

| SMILES | IC50 [nM] |
| --- | --- |
| O=C(Nc1nnc(CCc2ccc(Cl)cc2)s1)C1CC(=O)N(c2ccc(CN3CCCCCC3)cc2)C1 (stereo not shown) [Compound F114, 1-[4-(azepan-1-ylmethyl)phenyl]-N-[5-[2-(4-chlorophenyl)ethyl]-1,3,4-thiadiazol-2-yl]-5-oxo-pyrrolidine-3-carboxamide] | 3 |
| O=C(Nc1nnc(CCC2CCCC2)s1)C1CC(=O)N(c2ccc(CN3CCCC(F)(F)C3)cc2)C1 (stereo not shown) [Compound F115, N-[5-(2-cyclopentylethyl)-1,3,4-thiadiazol-2-yl]-1-[4-[(3,3-difluoro-1-piperidyl)methyl]phenyl]-5-oxo-pyrrolidine-3-carboxamide] | 3 |
| CCCN(CCC)Cc1ccc(N2CC(C(=O)Nc3nnc(CCc4ccc(Cl)cc4)s3)CC2=O)cc1 (stereo not shown) [Compound F116, N-[5-[2-(4-chlorophenyl)ethyl]-1,3,4-thiadiazol-2-yl]-1-[4-[(dipropyl-amino)methyl]phenyl]-5-oxo-pyrrolidine-3-carboxamide] | 3 |
| CN1CCN(Cc2ccc(N3CC(C(=O)Nc4nnc(CCc5ccc(Cl)cc5)s4)CC3=O)cc2)CC1 (stereo not shown) [Compound F117, N-[5-[2-(4-chlorophenyl)ethyl]-1,3,4-thiadiazol-2-yl]-1-[4-[(4-methylpiperazin-1-yl)methyl]phenyl]-5-oxo-pyrrolidine-3-carboxamide] | 4 |
| O=C(Nc1ncc(CCc2ccccc2)s1)C1CC(=O)N(c2ccc(CN3CCOCC3)cc2)C1 (stereo not shown) [Compound F118, 1-[4-(morpholinomethyl)phenyl]-5-oxo-N-[5-(2-phenylethyl)thiazol-2-yl]pyrrolidine-3-carboxamide] | 4 |
| C[C@@H]1CN(Cc2ccc(N3CC(C(=O)Nc4nnc(CCc5ccc(Cl)cc5)s4)CC3=O)cc2)C[C@H](C)O1 (stereo partly drawn) [Compound F119, N-[5-[2-(4-chlorophenyl)ethyl]-1,3,4-thiadiazol-2-yl]-1-[4-[[(2S,6R)-2,6-dimethylmorpholin-4-yl]methyl]phenyl]-5-oxo-pyrrolidine-3-carboxamide] | 4 |
| O=C(Nc1nnc(CCc2ccc(Cl)cc2)s1)C1CC(=O)N(c2ccc(CN3CCOCC3)cc2)C1 (stereo not shown) [Compound F121, N-[5-[2-(4-chlorophenyl)ethyl]-1,3,4-thiadiazol-2-yl]-1-[4-(morpholinomethyl)phenyl]-5-oxo-pyrrolidine-3-carboxamide] | 4 |
| O=C(Nc1nnc(CCC2CCCC2)s1)C1CC(=O)N(c2ccc(CN3CCCOCC3)cc2)C1 (stereo not shown) [Compound F122, N-[5-(2-cyclopentylethyl)-1,3,4-thiadiazol-2-yl]-1-[4-(1,4-oxazepan-4-ylmethyl)phenyl]-5-oxo-pyrrolidine-3-carboxamide] | 4 |
| O=C(Nc1nnc(CCC2CCCC2)s1)C1CC(=O)N(c2ccc(CN3CCC(F)(F)CC3)cc2)C1 (stereo not shown) [Compound F123, N-[5-(2-cyclopentylethyl)-1,3,4-thiadiazol-2-yl]-1-[4-[(4,4-difluoro-1-piperidyl)methyl]phenyl]-5-oxo-pyrrolidine-3-carboxamide] | 5 |
| CN(Cc1ccc(N2C[C@@H](C(=O)Nc3ccc(CCc4ccc(F)cc4)nn3)CC2=O)cc1)C1CCOCC1 [Compound F126, (3S)-N-[6-[2-(4-fluorophenyl)ethyl]pyridazin-3-yl]-1-[4-[[methyl(tetrahydropyran-4-yl)amino]methyl]phenyl]-5-oxo-pyrrolidine-3-carboxamide] | 8 |
| CCN(Cc1ccc(N2CC(C(=O)Nc3nnc(CCc4ccc(Cl)cc4)s3)CC2=O)cc1)C(C)C (stereo not shown) [Compound F127, N-[5-[2-(4-chlorophenyl)ethyl]-1,3,4-thiadiazol-2-yl]-1-[4-[[ethyl(isopropyl)amino]methyl]phenyl]-5-oxo-pyrrolidine-3-carobxamide] | 9 |
| O=C(N[C@@H]1CCN(c2ccc(CN3CCOCC3)cc2)C1)c1nnc(CCc2ccc(Cl)cc2)s1 [Compound F131, 5-[2-(4-chloro-phenyl)-ethyl]-[1,3,4]thiadiazole-2-carboxylic acid [(R)-1-(4-morpholin-4-ylmethyl-phenyl)-pyrrolidin-3-yl]-amide hydrochloride] | 2 |

Now from value to molecule:

| IC50 [nM] | SMILES |
| --- | --- |
| 3 | O=C(Nc1nnc(CCc2ccc(Cl)cc2)s1)C1CC(=O)N(c2ccc(CNC3CCOCC3)cc2)C1 (stereo not shown) [Compound F105, 5-oxo-1-{4-[(tetrahydro-pyran-4-ylamino)-methyl]-phenyl}-pyrrolidine-3-carboxylic acid {5-[2-(4-chloro-phenyl)-ethyl]-[1,3,4]thiadiazol-2-yl}-amide; hydrochloride] |
| 3 | O=C(Nc1nnc(CCC2CCCCC2)s1)C1CC(=O)N(c2ccc(CN3CCCCC3)cc2)C1 (stereo not shown) [Compound F106, N-[5-(2-cyclohexylethyl)-1,3,4-thiadiazol-2-yl]-5-oxo-1-[4-(1-piperidylmethyl)phenyl] pyrrolidine-3-carboxamide] |
| 3 | O=C(Nc1nnc(CCc2ccc(F)cc2)s1)[C@H]1CC(=O)N(c2ccc(CN3CCOCC3)cc2)C1 [Compound F108, (3S)-N-[5-[2-(4-fluorophenyl)ethyl]-1,3,4-thiadiazol-2-yl]-1-[4-(morpholinomethyl)phenyl]-5-oxo-pyrrolidine-3-carboxamide] |
| 3 | O=C(Nc1nnc(CCc2ccc(Cl)cc2)s1)C1CC(=O)N(c2ccc(CN3CC4CC4C3)cc2)C1 (stereo not shown) [Compound F110, 1-[4-(3-azabicyclo[3.1.0]hexan-3-ylmethyl)phenyl]-N-[5-[2-(4-chlorophenyl)ethyl]-1,3,4-thiadiazol-2-yl]-5-oxo-pyrrolidine-3-carboxamide] |
| 3 | CN(Cc1ccc(N2CC(C(=O)Nc3nnc(CCc4ccc(Cl)cc4)s3)CC2=O)cc1)C1CCOCC1 (stereo not shown) [Compound F111, N-[5-[2-(4-chlorophenyl)ethyl]-1,3,4-thiadiazol-2-yl]-1-[4-[[methyl(tetrahydropyran-4-yl)amino]methyl]phenyl]-5-oxo-pyrrolidine-3-carboxamide] |
| 3 | CCN(Cc1ccc(N2CC(C(=O)Nc3nnc(CCc4ccc(Cl)cc4)s3)CC2=O)cc1)CC(C)C (stereo not shown) [Compound F112, N-[5-[2-(4-chlorophenyl)ethyl]-1,3,4-thiadiazol-2-yl]-1-[4-[[ethyl(isobutyl)amino]methyl]phenyl]-5-oxo-pyrrolidine-3-carboxamide] |
| 3 | O=C(Nc1nnc(CCC2CCCC2)s1)C1CC(=O)N(c2ccc(CN3CCC(F)CC3)cc2)C1 (stereo not shown) [Compound F113, N-[5-(2-cyclopentylethyl)-1,3,4-thiadiazol-2-yl]-1-[4-[(4-fluoro-1-piperidyl)methyl]phenyl]-5-oxo-pyrrolidine-3-carboxamide] |
| 1 | O=C(NC1CC(=O)N(c2ccc(CN3CCOCC3)cc2)C1)c1nnc(CCc2ccc(Cl)cc2)s1 (stereo not shown) [Compound F128, 5-[2-(4-chlorophenyl)ethyl]-N-[1-[4-(morpholino-methyl)phenyl]-5-oxo-pyrrolidine-3-yl]-1,3,4-thiadiazole-2-carboxamide] |
| 2 | O=C(NC1CC(=O)N(c2ccc(CN3CCCOCC3)cc2)C1)c1nnc(CCc2ccc(Cl)cc2)s1 (stereo not shown) [Compound F129, 5-[2-(4-chlorophenyl)ethyl]-N-[1-[4-(1,4-oxazepan-4-ylmethyl)phenyl]-5-oxo-pyrrolidin-3-yl]-1,3,4-thiadiazole-2-carboxamide] |
| 2 | O=C(N[C@@H]1CC(=O)N(c2ccc(CN3CCOCC3)cc2)C1)c1nnc(CCc2ccc(Cl)cc2)s1 [Compound F130, 5-[2-(4-chlorophenyl)ethyl]-N-[(3R)-1-[4-(morpholinomethyl)phenyl]-5-oxo-pyrrolidine-3-yl]-1,3,4-thiadiazole-2-carboxamide] |
